Values quoted from earlier work in patent publication US7670617B2, “Sequential drug delivery systems” (CIMA Labs Inc., priority 2001, dated 2010).

Settings: Nasal Spray

Compound	BIOAVAILABILITY (%)
O=C(O)C(O)C(O)C(=O)O.Oc1ccc2c(c1)[C@@]13CCCC[C@@]1(O)[C@@H](C2)N(CC1CCC1)CC3 [Butorphanol Tartrate]	60%-70%

Same assay, conditions: in vivo

Compound	BIOAVAILABILITY (%)
CC(C)(C)NC(=O)[C@H]1CC[C@H]2[C@@H]3CC[C@H]4NC(=O)C=C[C@]4(C)[C@H]3CC[C@]12C [Finasteride]	63%
CC(CCc1ccccc1)NCC(O)c1ccc(O)c(C(N)=O)c1 (centres unmarked) [Labetalol]	18 ± 5%
CCOC(=O)[C@H](CCc1ccccc1)N[C@@H](C)C(=O)N1Cc2ccccc2C[C@H]1C(=O)O.Cl [Quinapril•HCI]	60%
CC(C)(C)NCC(O)c1cc(O)cc(O)c1 (centres unmarked) [Terbutaline sulphate]	30-70%
CCOC(=O)[C@H](CCc1ccccc1)N[C@H]1CCc2ccccc2N(CC(=O)O)C1=O.Cl [Benazepril:HCI]	37%
CCOC(=O)[C@H](CCc1ccccc1)N[C@@H](C)C(=O)N1CCC[C@H]1C(=O)O [Enalapril]	41-60%
CN1CCCC1c1cccnc1 (centres unmarked) [Nicotine]	16.7 (±8.6%)
Cc1nccn1CC1CCc2c(c3ccccc3n2C)C1=O.Cl (centres unmarked) [Ondansetron:HCI]	55%
COc1ccccc1OCCNCC(O)COc1cccc2[nH]c3ccccc3c12 (centres unmarked) [Carvedilol]	25-35%
Oc1ccc2c3c1O[C@H]1[C@@H](O)CC[C@@]4(O)[C@@H](C2)N(CC2CCC2)CC[C@]314 [Nalbuphine]	16 (±8) %
CC(C)C[C@H]1C(=O)N2CCC[C@H]2[C@]2(O)O[C@](NC(=O)[C@@H]3C=C4c5cccc6[nH]c(Br)c(c56)C[C@H]4N(C)C3)(C(C)C)C(=O)N12 [Bromocriptine]	28%
CN(C)CCC=C1c2ccccc2COc2ccccc21 [Doxepin]	27 ± 10%
COc1cc2nc(N3CCN(C(=O)C4COc5ccccc5O4)CC3)nc(N)c2cc1OC (centres unmarked) [Doxazosin]	65%
CCOC(=O)[C@H](CCc1ccccc1)N[C@@H](C)C(=O)N1Cc2cc(OC)c(OC)cc2C[C@H]1C(=O)O [Moexipril]	13%
CC(C)NCC(O)COc1cccc2ccccc12.Cl (centres unmarked) [Propranolol:HCI]	26%

Settings: not given

Compound	pKa
CC(C)(C)NC(=O)[C@@H]1C[C@@H]2CCCC[C@@H]2CN1C[C@@H](O)[C@H](Cc1ccccc1)NC(=O)[C@H](CC(N)=O)NC(=O)c1ccc2ccccc2n1 [Saquinavir]	7
CC(C)C[C@H]1C(=O)N2CCC[C@H]2[C@]2(O)O[C@](NC(=O)[C@@H]3C=C4c5cccc6[nH]c(Br)c(c56)C[C@H]4N(C)C3)(C(C)C)C(=O)N12 [Bromocriptine]	4.9
CN1CCc2cccc3c2[C@H]1Cc1ccc(O)c(O)c1-3 [Apomorphine]	7

Settings: in animals

Compound	BIOAVAILABILITY (%)
CC(NC(C)(C)C)C(=O)c1cccc(Cl)c1.Cl (centres unmarked) [Bupropion:HCI]	5%-20%
